Assay results as given in patent publication US10851098B2, “Azole amides and amines as alpha v integrin inhibitors” (BRISTOL-MYERS SQUIBB COMPANY, priority 2016, dated 2020).

biological target: T1, human αVβ6 (Homo sapiens, UniProt P06756+P18564); assay: human αVβ6 HTRF binding assay
T1 construct: purchased R & D systems 3817-AV
Procedure: All binding assays used the HTRF (homogeneous time resolved fluorescence) technology from Cisbio International, therefore all assays are described as HTRF binding assays. The assay results for the Examples are listed above together with the characterization data. The HTRF binding assays are established for the following integrins: human αVβ6, human αVβ1, human αVβ3, human αVβ5, and human αVβ8. All assays used the following assay buffer: 20 mM Tris, pH 7.4, 1 mM MgCl2, 1 mM MnCl2, 0.01% Tween 20, and 0.01% BSA. Alternatively, a SPA-based assay was used for evaluation of receptor binding.
[…]

T1 sequence (P06756 31-992 limits assumed): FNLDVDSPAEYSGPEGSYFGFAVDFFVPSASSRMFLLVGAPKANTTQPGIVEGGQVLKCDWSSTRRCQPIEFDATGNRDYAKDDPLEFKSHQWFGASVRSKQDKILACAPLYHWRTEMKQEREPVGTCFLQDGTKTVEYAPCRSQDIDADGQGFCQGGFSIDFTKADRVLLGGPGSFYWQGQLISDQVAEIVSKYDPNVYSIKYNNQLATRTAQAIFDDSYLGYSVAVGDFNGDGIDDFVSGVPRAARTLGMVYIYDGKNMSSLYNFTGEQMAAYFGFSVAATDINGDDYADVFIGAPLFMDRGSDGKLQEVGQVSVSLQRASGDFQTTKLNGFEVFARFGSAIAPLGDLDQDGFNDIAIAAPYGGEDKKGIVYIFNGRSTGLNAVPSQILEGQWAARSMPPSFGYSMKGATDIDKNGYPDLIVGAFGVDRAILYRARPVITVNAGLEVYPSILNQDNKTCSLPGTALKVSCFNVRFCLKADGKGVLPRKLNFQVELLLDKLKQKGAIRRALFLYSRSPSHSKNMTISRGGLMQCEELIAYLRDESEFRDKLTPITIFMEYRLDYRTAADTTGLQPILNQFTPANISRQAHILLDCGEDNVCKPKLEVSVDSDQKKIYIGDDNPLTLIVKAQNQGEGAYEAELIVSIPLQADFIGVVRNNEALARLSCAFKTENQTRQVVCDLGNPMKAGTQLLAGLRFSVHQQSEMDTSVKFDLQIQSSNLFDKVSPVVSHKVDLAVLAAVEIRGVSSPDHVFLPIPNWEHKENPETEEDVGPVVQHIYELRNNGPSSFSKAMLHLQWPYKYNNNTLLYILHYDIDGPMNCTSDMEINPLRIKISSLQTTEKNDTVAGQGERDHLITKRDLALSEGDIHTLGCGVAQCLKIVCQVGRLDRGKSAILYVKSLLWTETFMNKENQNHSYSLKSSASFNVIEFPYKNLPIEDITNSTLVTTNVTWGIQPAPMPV
T1 sequence (P18564 22-707 limits assumed): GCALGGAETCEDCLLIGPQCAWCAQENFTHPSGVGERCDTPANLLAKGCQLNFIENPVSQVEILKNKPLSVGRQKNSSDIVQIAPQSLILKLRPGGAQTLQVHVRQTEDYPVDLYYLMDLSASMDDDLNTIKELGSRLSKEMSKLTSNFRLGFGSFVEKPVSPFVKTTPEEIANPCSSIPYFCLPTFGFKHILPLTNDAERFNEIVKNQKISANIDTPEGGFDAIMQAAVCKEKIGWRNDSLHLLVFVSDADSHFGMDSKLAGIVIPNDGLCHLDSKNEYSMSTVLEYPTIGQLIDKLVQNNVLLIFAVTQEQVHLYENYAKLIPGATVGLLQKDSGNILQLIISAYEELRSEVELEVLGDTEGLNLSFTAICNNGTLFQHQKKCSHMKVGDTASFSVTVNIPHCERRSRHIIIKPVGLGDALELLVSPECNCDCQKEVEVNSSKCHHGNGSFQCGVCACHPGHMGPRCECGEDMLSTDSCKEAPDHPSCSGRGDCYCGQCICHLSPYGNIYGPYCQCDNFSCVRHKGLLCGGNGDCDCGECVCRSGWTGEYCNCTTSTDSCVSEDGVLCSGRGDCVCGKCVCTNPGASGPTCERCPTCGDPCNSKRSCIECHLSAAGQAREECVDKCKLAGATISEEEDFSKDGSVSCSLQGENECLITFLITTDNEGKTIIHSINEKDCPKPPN

| IC50 | SMILES |
| --- | --- |
| 3930 nM | Cc1nc2c(cc1Cn1cc(C(=O)NC(CC(=O)O)c3cc(Cl)cc(Cl)c3)c(CO)n1)CCCN2 (stereo not drawn) [Example 105] |
| 4310 nM | CCOC(=O)C[C@H](NC(=O)c1cnn(CCc2ccc3c(n2)NCCC3)c1)c1cc(Br)cc(C(C)(C)C)c1 [Example 106] |
| 5000 nM | Cc1nc2c(cc1CCn1ncc(C(=O)NC(CC(=O)O)c3cc(Cl)cc(Cl)c3)c1CO)CCCN2 (stereo not drawn) [Example 107] |
| 5000 nM | Cc1nc2c(cc1CCn1ncc(C(=O)NC(CC(=O)O)c3cc(Cl)cc(Cl)c3)c1COC(C)(C)C)CCCN2 (stereo not drawn) [Example 108] |
| 6440 nM | O=C(O)CC1(NC(=O)c2cnn(CCc3ccc4c(n3)NCCC4)c2)Cc2ccccc2C1 [Example 109] |
| 34 nM | Cc1cc(C)c(S(=O)(=O)N[C@@H](CNC(=O)c2ccnn2CCc2ccc3c(n2)NCCC3)C(=O)O)c(C)c1 [Example 115] |
| 102 nM | O=C(O)C[C@H](NC(=O)c1cn(CCc2ccc3c(n2)NCCC3)cn1)c1cc(Cl)cc(Cl)c1 [Example 116] |
| 130 nM | CCOC(=O)[C@H](CNC(=O)c1cn(CCc2ccc3c(n2)NCCC3)cn1)NS(=O)(=O)c1c(C)cc(C)cc1C [Example 117] |
| 223 nM | Cc1cc(C)c(S(=O)(=O)N[C@@H](CNC(=O)c2cnn(Cc3cc4c(nc3C)NCCC4)n2)C(=O)O)c(C)c1 [Example 118] |
| 98 nM | O=C(O)C[C@H](NC(=O)c1ncn(CCc2ccc3c(n2)NCCC3)n1)c1cc(Cl)cc(Cl)c1 [Example 120] |
| 43 nM | Cc1cc(C)c(S(=O)(=O)N[C@@H](CNC(=O)c2ccn(Cc3cc4c(nc3C)NCCC4)c2)C(=O)O)c(C)c1 [Example 122] |
| 2.6 nM | CCCCS(=O)(=O)N[C@@H](CNC(=O)c1cnn(CCc2ccc3c(n2)NCCC3)c1)C(=O)O [Example 124] |
| 14 nM | O=C(NC[C@H](NS(=O)(=O)Cc1ccccc1)C(=O)O)c1cnn(CCc2ccc3c(n2)NCCC3)c1 [Example 125] |
| 10 nM | CCS(=O)(=O)N[C@@H](CNC(=O)c1cnn(CCc2ccc3c(n2)NCCC3)c1)C(=O)O [Example 126] |
| 1.5 nM | CCCOC(=O)N[C@@H](CNC(=O)c1cnn(CCc2ccc3c(n2)NCCC3)c1)C(=O)O [Example 127] |
| 2.5 nM | O=C(NC[C@H](NS(=O)(=O)Cc1ccccc1C(F)(F)F)C(=O)O)c1cnn(CCc2ccc3c(n2)NCCC3)c1 [Example 128] |
| 3 nM | O=C(NC[C@H](NS(=O)(=O)CCC(F)(F)F)C(=O)O)c1cnn(CCc2ccc3c(n2)NCCC3)c1 [Example 129] |
| 13 nM | COC(=O)N[C@@H](CNC(=O)c1cnn(CCc2ccc3c(n2)NCCC3)c1)C(=O)O [Example 130] |
| 0.9 nM | CC(C)COC(=O)N[C@@H](CNC(=O)c1cnn(CCc2ccc3c(n2)NCCC3)c1)C(=O)O [Example 131] |
| 2.3 nM | CCOC(=O)N[C@@H](CNC(=O)c1cnn(CCc2ccc3c(n2)NCCC3)c1)C(=O)O [Example 132] |
| 2.6 nM | C=CCOC(=O)N[C@@H](CNC(=O)c1cnn(CCc2ccc3c(n2)NCCC3)c1)C(=O)O [Example 133] |
| 0.8 nM | CCCCCOC(=O)N[C@@H](CNC(=O)c1cnn(CCc2ccc3c(n2)NCCC3)c1)C(=O)O [Example 134] |
| 1.4 nM | C=CCCOC(=O)N[C@@H](CNC(=O)c1cnn(CCc2ccc3c(n2)NCCC3)c1)C(=O)O [Example 135] |
| 2 nM | C#CCOC(=O)N[C@@H](CNC(=O)c1cnn(CCc2ccc3c(n2)NCCC3)c1)C(=O)O [Example 136] |
| 0.8 nM | CC(C)(C)COC(=O)N[C@@H](CNC(=O)c1cnn(CCc2ccc3c(n2)NCCC3)c1)C(=O)O [Example 137] |
| 4.1 nM | CCCS(=O)(=O)N[C@@H](CNC(=O)c1cnn(CCc2ccc3c(n2)NCCC3)c1)C(=O)O [Example 138] |

| IC50 | SMILES |
| --- | --- |
| 0.9 nM | O=C(NC[C@H](NS(=O)(=O)CCc1cccc2ccccc12)C(=O)O)c1cnn(CCc2ccc3c(n2)NCCC3)c1 [Example 139] |
| 6.2 nM | O=C(NC[C@H](NS(=O)(=O)Cc1cc(Cl)cc(Cl)c1)C(=O)O)c1cnn(CCc2ccc3c(n2)NCCC3)c1 [Example 140] |
| 3.6 nM | O=C(NC[C@H](NS(=O)(=O)Cc1ccc(Cl)c(Cl)c1)C(=O)O)c1cnn(CCc2ccc3c(n2)NCCC3)c1 [Example 141] |
| 8.2 nM | O=C(NC[C@H](NS(=O)(=O)Cc1cccc(F)c1)C(=O)O)c1cnn(CCc2ccc3c(n2)NCCC3)c1 [Example 142] |
| 11 nM | Cc1cccc(CS(=O)(=O)N[C@@H](CNC(=O)c2cnn(CCc3ccc4c(n3)NCCC4)c2)C(=O)O)c1 [Example 143] |
| 2.1 nM | CCCCCS(=O)(=O)N[C@@H](CNC(=O)c1cnn(CCc2ccc3c(n2)NCCC3)c1)C(=O)O [Example 144] |
| 3.9 nM | CC(C)CS(=O)(=O)N[C@@H](CNC(=O)c1cnn(CCc2ccc3c(n2)NCCC3)c1)C(=O)O [Example 145] |
| 8.6 nM | O=C(NC[C@H](NS(=O)(=O)Cc1ccc(OC(F)(F)F)cc1)C(=O)O)c1cnn(CCc2ccc3c(n2)NCCC3)c1 [Example 146] |
| 14 nM | COCCS(=O)(=O)N[C@@H](CNC(=O)c1cnn(CCc2ccc3c(n2)NCCC3)c1)C(=O)O [Example 147] |
| 8.9 nM | CCOCCS(=O)(=O)N[C@@H](CNC(=O)c1cnn(CCc2ccc3c(n2)NCCC3)c1)C(=O)O [Example 148] |
| 4.7 nM | COCCOC(=O)N[C@@H](CNC(=O)c1cnn(CCc2ccc3c(n2)NCCC3)c1)C(=O)O [Example 149] |
| 5.7 nM | O=C(NC[C@H](NS(=O)(=O)Cc1ccc(C(F)(F)F)cc1)C(=O)O)c1cnn(CCc2ccc3c(n2)NCCC3)c1 [Example 150] |
| 1.2 nM | O=C(NC[C@H](NS(=O)(=O)CCN1C(=O)c2ccccc2C1=O)C(=O)O)c1cnn(CCc2ccc3c(n2)NCCC3)c1 [Example 151] |
| 0.4 nM | CCCCC(CC)COC(=O)N[C@@H](CNC(=O)c1cnn(CCc2ccc3c(n2)NCCC3)c1)C(=O)O (stereo partly drawn) [Example 152] |
| 1.6 nM | O=C(N[C@@H](CNC(=O)c1cnn(CCc2ccc3c(n2)NCCC3)c1)C(=O)O)OCC(F)(F)F [Example 153] |
| 16 nM | O=C(NC[C@H](NS(=O)(=O)Cc1cccc(C(F)(F)F)c1)C(=O)O)c1cnn(CCc2ccc3c(n2)NCCC3)c1 [Example 154] |
| 5.5 nM | O=C(NC[C@H](NS(=O)(=O)Cc1ccccc1Cl)C(=O)O)c1cnn(CCc2ccc3c(n2)NCCC3)c1 [Example 155] |
| 21 nM | O=C(NC[C@H](NS(=O)(=O)Cc1cccc(Br)c1)C(=O)O)c1cnn(CCc2ccc3c(n2)NCCC3)c1 [Example 156] |
| 16 nM | O=C(NC[C@H](NS(=O)(=O)Cc1cc(C(F)(F)F)cc(C(F)(F)F)c1)C(=O)O)c1cnn(CCc2ccc3c(n2)NCCC3)c1 [Example 157] |
| 29 nM | Cc1cc(CS(=O)(=O)N[C@@H](CNC(=O)c2cnn(CCc3ccc4c(n3)NCCC4)c2)C(=O)O)no1 [Example 158] |
| 2.7 nM | O=C(NC[C@H](NS(=O)(=O)CC1CC1)C(=O)O)c1cnn(CCc2ccc3c(n2)NCCC3)c1 [Example 159] |
| 0.7 nM | CCCCCCOC(=O)N[C@@H](CNC(=O)c1cnn(CCc2ccc3c(n2)NCCC3)c1)C(=O)O [Example 160] |
| 15 nM | Cc1ccc(CS(=O)(=O)N[C@@H](CNC(=O)c2cnn(CCc3ccc4c(n3)NCCC4)c2)C(=O)O)cc1 [Example 161] |
| 2.2 nM | CC#CCOC(=O)N[C@@H](CNC(=O)c1cnn(CCc2ccc3c(n2)NCCC3)c1)C(=O)O [Example 162] |
| 6.2 nM | O=C(NC[C@H](NS(=O)(=O)Cc1cccc(Cl)c1)C(=O)O)c1cnn(CCc2ccc3c(n2)NCCC3)c1 [Example 163] |
